This note sets out measurements from patent US20080090734A1, “DRUG SCREENING AND TARGET IDENTIFICATION USING SPR IMAGING OF TARGET PROTEIN ARRAYS” (The Trustees of California State University, priority 2006, published 2008).

In experiment [1] the target is Bovine Serum Albumin (BSA) (Bos taurus, UniProt P02769). Kind of experiment: SPR binding of ferulic acid to pre-immobilized BSA. The conditions noted are these: 10, 20, and 50 μM injected; flow rate 1 mL/h. The procedure: By injecting solutions containing different concentrations of FA and recording the resultant sensorgrams, the binding constant between FA and BSA was measured. […] Three different FA concentrations (10, 20, and 50 μM) were injected. A flow rate of 1 mL/h was used. [drawing 1] [drawing] Representative SPR sensorgrams showing binding of ferulic acid (structure on the left) onto pre-immobilized BSA molecules.
Sequence of Bovine Serum Albumin (BSA) (P02769 25-607): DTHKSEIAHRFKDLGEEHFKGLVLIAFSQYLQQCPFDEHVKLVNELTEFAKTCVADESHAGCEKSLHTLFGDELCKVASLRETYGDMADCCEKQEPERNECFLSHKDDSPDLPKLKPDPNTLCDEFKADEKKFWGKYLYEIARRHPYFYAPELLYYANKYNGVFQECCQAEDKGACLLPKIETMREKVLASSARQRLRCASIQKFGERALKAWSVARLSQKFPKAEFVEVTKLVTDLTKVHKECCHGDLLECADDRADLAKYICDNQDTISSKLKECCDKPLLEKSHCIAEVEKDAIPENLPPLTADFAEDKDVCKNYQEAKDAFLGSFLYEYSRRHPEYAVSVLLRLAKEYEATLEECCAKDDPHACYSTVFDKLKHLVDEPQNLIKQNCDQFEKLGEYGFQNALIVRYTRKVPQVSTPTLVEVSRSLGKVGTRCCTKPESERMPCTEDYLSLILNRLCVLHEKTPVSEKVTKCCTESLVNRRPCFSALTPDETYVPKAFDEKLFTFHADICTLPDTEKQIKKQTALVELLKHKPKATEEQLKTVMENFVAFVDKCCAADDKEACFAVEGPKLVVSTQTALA
(In general: SPR reads the build-up and loss of mass on a sensor chip optically.)

Experiment [2] deals with TrpS protein (tryptophanyl tRNA synthetase) (Escherichia coli, UniProt P00954). Kind of experiment: Target-inhibitor interaction by SPR. It is filed as binding. An excerpt:
(§1) We have examined specific binding interactions between select target proteins and their specific inhibitors. […] [drawing]

Experiment [3] has as its system A. baumannii clinical isolate LAC 01. The experiment can be described thus: Antibiotic susceptibility profile. It is filed as cell-based, Acinetobacter baumannii. Set-up: key: Resistance; Intermediate; Susceptible. Summed up: (§2)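 Read-out is categorical: resistance, intermediate or susceptibility per antibiotic, judged against breakpoints defined for A. baumannii. Only drugs with such breakpoints are included, and strains derive from New York and Los Angeles hospital infections.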

The subject of experiment [4] is A. baumannii clinical isolate LAC 02. Kind of experiment: Antibiotic susceptibility profile. The arrangement: key: Resistance; Intermediate; Susceptible. It is filed as cell-based, Acinetobacter baumannii. Summed up: as §2
The test system of experiment [5] is A. baumannii clinical isolate LAC 03. The experiment can be described thus: Antibiotic susceptibility profile. Set-up: key: Resistance; Intermediate; Susceptible. Type of experiment: cell-based, Acinetobacter baumannii. Summed up:
as §2

The subject of experiment [6] is A. baumannii clinical isolate LAC 04. The experiment can be described thus: Antibiotic susceptibility profile. It is filed as cell-based, Acinetobacter baumannii. Set-up: key: Resistance; Intermediate; Susceptible. An outline of the steps:
as §2

Experiment [7] relates to A. baumannii clinical isolate LAC 05. Kind of experiment: Antibiotic susceptibility profile. It is filed as cell-based, Acinetobacter baumannii. The arrangement: key: Resistance; Intermediate; Susceptible. Summed up:
as §2

For experiment [8], the system named is A. baumannii clinical isolate LAC 06. Kind of experiment: Antibiotic susceptibility profile. The arrangement: key: Resistance; Intermediate; Susceptible. Type of experiment: cell-based, Acinetobacter baumannii. Summed up: as §2
The test system of experiment [9] is A. baumannii clinical isolate LAC 07. Kind of experiment: Antibiotic susceptibility profile. The arrangement: key: Resistance; Intermediate; Susceptible. Type of experiment: cell-based, Acinetobacter baumannii. Summed up: as §2
The test system of experiment [10] is A. baumannii clinical isolate LAC 08. Kind of experiment: Antibiotic susceptibility profile. Type of experiment: cell-based, Acinetobacter baumannii. The arrangement: key: Resistance; Intermediate; Susceptible. Summed up: as §2
The test system of experiment [11] is A. baumannii clinical isolate LAC 09. The experiment can be described thus: Antibiotic susceptibility profile. It is filed as cell-based, Acinetobacter baumannii. Set-up: key: Resistance; Intermediate; Susceptible. An outline of the steps: as §2
The test system of experiment [12] is A. baumannii clinical isolate LAC 10. Kind of experiment: Antibiotic susceptibility profile. Type of experiment: cell-based, Acinetobacter baumannii. The arrangement: key: Resistance; Intermediate; Susceptible. Summed up: as §2
The subject of experiment [13] is A. baumannii clinical isolate LAC 11. Kind of experiment: Antibiotic susceptibility profile. The arrangement: key: Resistance; Intermediate; Susceptible. Type of experiment: cell-based, Acinetobacter baumannii. An outline of the steps:
as §2

The subject of experiment [14] is A. baumannii clinical isolate LAC 12. Kind of experiment: Antibiotic susceptibility profile. Type of experiment: cell-based, Acinetobacter baumannii. Set-up: key: Resistance; Intermediate; Susceptible. An outline of the steps:
as §2

The subject of experiment [15] is A. baumannii clinical isolate LAC 13. Kind of experiment: Antibiotic susceptibility profile. Type of experiment: cell-based, Acinetobacter baumannii. The arrangement: key: Resistance; Intermediate; Susceptible. An outline of the steps: as §2
Experiment [16] deals with A. baumannii clinical isolate LAC 14. The experiment can be described thus: Antibiotic susceptibility profile. It is filed as cell-based, Acinetobacter baumannii. Set-up: key: Resistance; Intermediate; Susceptible. Summed up:
as §2

Experiment [17] deals with A. baumannii clinical isolate LAC 15. Kind of experiment: Antibiotic susceptibility profile. Set-up: key: Resistance; Intermediate; Susceptible. It is filed as cell-based, Acinetobacter baumannii. An outline of the steps:
as §2

Experiment [18] relates to A. baumannii clinical isolate LAC 16. The experiment can be described thus: Antibiotic susceptibility profile. It is filed as cell-based, Acinetobacter baumannii. Set-up: key: Resistance; Intermediate; Susceptible. Summed up: as §2
Experiment [19] deals with A. baumannii clinical isolate LAC 17. The experiment can be described thus: Antibiotic susceptibility profile. Set-up: key: Resistance; Intermediate; Susceptible. It is filed as cell-based, Acinetobacter baumannii. Summed up:
as §2

The test system of experiment [20] is A. baumannii clinical isolate LAC 18. Kind of experiment: Antibiotic susceptibility profile. It is filed as cell-based, Acinetobacter baumannii. Set-up: key: Resistance; Intermediate; Susceptible. An outline of the steps: as §2
Experiment [21] deals with A. baumannii clinical isolate LAC 19. Kind of experiment: Antibiotic susceptibility profile. The arrangement: key: Resistance; Intermediate; Susceptible. It is filed as cell-based, Acinetobacter baumannii. An outline of the steps:
as §2

The test system of experiment [22] is A. baumannii clinical isolate LAC 20. The experiment can be described thus: Antibiotic susceptibility profile. Type of experiment: cell-based, Acinetobacter baumannii. Set-up: key: Resistance; Intermediate; Susceptible. Summed up:
as §2

The subject of experiment [23] is A. baumannii clinical isolate NY A. The experiment can be described thus: Antibiotic susceptibility profile. Set-up: key: Resistance; Intermediate; Susceptible. Type of experiment: cell-based, Acinetobacter baumannii. An outline of the steps:
as §2

Experiment [24] relates to A. baumannii clinical isolate NY B. The experiment can be described thus: Antibiotic susceptibility profile. Type of experiment: cell-based, Acinetobacter baumannii. The arrangement: key: Resistance; Intermediate; Susceptible. An outline of the steps:
as §2

Experiment [25] has as its system A. baumannii clinical isolate NY C. The experiment can be described thus: Antibiotic susceptibility profile. It is filed as cell-based, Acinetobacter baumannii. The arrangement: key: Resistance; Intermediate; Susceptible. Summed up:
as §2

The test system of experiment [26] is A. baumannii clinical isolate NY D. The experiment can be described thus: Antibiotic susceptibility profile. It is filed as cell-based, Acinetobacter baumannii. Set-up: key: Resistance; Intermediate; Susceptible. Summed up:
as §2

In experiment [27] the test system is A. baumannii clinical isolate NY E. Kind of experiment: Antibiotic susceptibility profile. Set-up: key: Resistance; Intermediate; Susceptible. It is filed as cell-based, Acinetobacter baumannii. Summed up:
as §2

Experiment [28] deals with A. baumannii clinical isolate NY F. Kind of experiment: Antibiotic susceptibility profile. Type of experiment: cell-based, Acinetobacter baumannii. Set-up: key: Resistance; Intermediate; Susceptible. An outline of the steps:
as §2

Experiment [29] concerns A. baumannii clinical isolate NY G. The experiment can be described thus: Antibiotic susceptibility profile. Type of experiment: cell-based, Acinetobacter baumannii. The arrangement: key: Resistance; Intermediate; Susceptible. Summed up:
as §2

In experiment [30] the test system is A. baumannii clinical isolate NY H. The experiment can be described thus: Antibiotic susceptibility profile. It is filed as cell-based, Acinetobacter baumannii. The arrangement: key: Resistance; Intermediate; Susceptible. An outline of the steps:
as §2

For experiment [31], the system named is A. baumannii reference strain 15839. Kind of experiment: Antibiotic susceptibility profile. Type of experiment: cell-based, Acinetobacter baumannii. Set-up: key: Resistance; Intermediate; Susceptible. The note with it: strain 15839 (ATCC). An outline of the steps: (§3)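 R/I/S calls per drug; panel limited to agents having A. baumannii breakpoints; isolates from hospital-acquired infections, LA County and NYC.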

Experiment [32] deals with A. baumannii reference strain 17978. The experiment can be described thus: Antibiotic susceptibility profile. It is filed as cell-based, Acinetobacter baumannii. Set-up: key: Resistance; Intermediate; Susceptible. The note with it: strain 17978 (ATCC). An outline of the steps:
as §3

The subject of experiment [33] is A. baumannii reference strain 19606. Kind of experiment: Antibiotic susceptibility profile. Type of experiment: cell-based, Acinetobacter baumannii. Set-up: key: Resistance; Intermediate; Susceptible. The conditions noted are these: strain 19606 (ATCC). An outline of the steps:
as §3

Experiment [34] deals with A. baumannii reference strain AYE. Kind of experiment: Antibiotic susceptibility profile. It is filed as cell-based, Acinetobacter baumannii. The arrangement: key: Resistance; Intermediate; Susceptible. Summed up:
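Clinical isolates from nosocomial infections in New York City and Los Angeles, tested alongside reference strains against only antibiotics having A. baumannii breakpoints; each scored R (resistant), I (intermediate) or S (susceptible).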

Experiment [35] relates to A. baumannii reference strain SDF. Kind of experiment: Antibiotic susceptibility profile. Type of experiment: cell-based, Acinetobacter baumannii. The arrangement: key: Resistance; Intermediate; Susceptible. An outline of the steps:
as §3

The next experiment addresses MurG protein (Escherichia coli, UniProt P17443). Kind of experiment: Target-inhibitor interaction by SPR. It is filed as binding.
Description: as §1

Sequence of MurG protein (P17443 whole entry): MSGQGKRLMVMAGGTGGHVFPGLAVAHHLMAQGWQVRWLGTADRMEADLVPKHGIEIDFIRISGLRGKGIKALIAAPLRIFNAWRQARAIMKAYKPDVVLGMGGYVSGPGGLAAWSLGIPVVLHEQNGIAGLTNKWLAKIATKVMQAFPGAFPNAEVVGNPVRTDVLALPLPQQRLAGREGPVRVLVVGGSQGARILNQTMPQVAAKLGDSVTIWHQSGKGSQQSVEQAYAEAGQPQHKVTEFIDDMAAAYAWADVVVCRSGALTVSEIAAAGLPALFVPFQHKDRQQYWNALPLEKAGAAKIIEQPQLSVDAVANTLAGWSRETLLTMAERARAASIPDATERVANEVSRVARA

As for `COc1cc(/C=C/C(=O)O)ccc1O` [ferulic acid], the “binding onto pre-immobilized BSA (SPR sensorgrams)” value in experiment [1] is reported as “binding”.
With `CN=C1NC(=O)[C@H]([C@H](C)c2c[nH]c3ccccc23)O1` [indolmycin], the “interaction with TrpS protein by SPR” value in [2] is on record as “Specific interaction”.
Consider Gentamicin, for which the Antibiotic susceptibility entry was “R” in experiment [3]; “I” in experiment [4]; “R” in [5]; “R” in [6]; “R” in [7]; “R” in experiment [8]. The Antibiotic susceptibility result in [9], in [10], in experiment [11], in [12], in experiment [13] and in experiment [14] was “R” in each case. Also, the Antibiotic susceptibility entry is “I” in [15]; “R” in experiment [16]; “I” in [17]; “R” in experiment [18]; “R” in experiment [19]; “R” in experiment [20]. The Antibiotic susceptibility result in [21], in experiment [22], in experiment [23], in experiment [24], in [25] and in experiment [26] was “R” each time. Moreover, the Antibiotic susceptibility entry in experiment [27] is “R”; in experiment [28] it was “R”; in experiment [29], “S”; in experiment [30], “R”; in [31], “R”; in [32] it was “S”. Moreover, the Antibiotic susceptibility result in experiment [33] is listed as “R”; in experiment [34], “R”; in experiment [35], “S”.
On to ramoplanin, for which the “binding to MurG protein by SPR” value on MurG protein is reported as “Dose-dependent specific binding”.
